Test results published in patent publication US20090156646A1, “PYRIDYLPHENOL COMPOUND AND USE THEREOF” (TAKEDA PHARMACEUTICAL COMPANY LIMITED, priority 2005, published 2009).
Counter-ions that a name gives are not always drawn.

melting point [°C] | SMILES
225 to 229 | Cl.N#Cc1c(-c2cccc(C(=O)NC3CCCNC3)c2)cc(-c2ccccc2O)nc1NC(=O)c1cc2ccccc2s1 (centres unmarked)
204 to 210 | N#Cc1c(-c2cccc(C(=O)NC3CCCNC3)c2)cc(-c2ccccc2O)nc1NC(=O)c1ccccn1 (centres unmarked) (as salt: hydrochloride) [Example 10, N-(3-cyano-6-(2-hydroxyphenyl)-4-{3-[(piperidin-3-ylamino)carbonyl]phenyl}pyridin-2-yl)pyridin-2-carboxamide dihydrochloride]
210 to 217 | N#Cc1c(-c2cccc(NC(=O)CN)c2)cc(-c2ccccc2O)nc1NC(=O)c1cccs1 (as salt: hydrochloride) [Example 12, N-[3-cyano-4-[3-(glycylamino)phenyl]-6-(2-hydroxyphenyl)pyridin-2-yl]thiophene-2-carboxamide dihydrochloride]
196 to 201 | N#Cc1c(-c2ccccc2C(=O)NCCN)cc(-c2ccccc2O)nc1NC(=O)c1cccs1 (as salt: hydrochloride) [Example 24, N-[4-(2-{[(2-aminoethyl)amino]carbonyl}phenyl)-3-cyano-6-(2-hydroxyphenyl)pyridin-2-yl]thiophene-2-carboxamide dihydrochloride]
214 to 220 | NCCC(=O)Nc1cccc(-c2cc(NC(=O)c3cccs3)nc(-c3ccccc3O)c2)c1 (as salt: hydrochloride) [Example 27, N-{4-[3-(β-alanylamino)phenyl]-6-(2-hydroxyphenyl)pyridin-2-yl}thiophene-2-carboxamide dihydrochloride]
198 to 205 | CN(C(=O)CN)c1cccc(-c2cc(-c3ccccc3O)nc(NC(=O)c3cccs3)c2C#N)c1 (as salt: hydrochloride) [Example 41, N-[3-cyano-4-{3-[glycyl(methyl)amino]phenyl}-6-(2-hydroxyphenyl)pyridin-2-yl]thiophene-2-carboxamide dihydrochloride]
206 to 214 | N#Cc1c(-c2cccc(NC(=O)[C@@H](N)Cc3cnc[nH]3)c2)cc(-c2ccc(Cl)cc2O)nc1NC(=O)c1ccco1 (as salt: hydrochloride) [Example 243, N-{3-[6-(4-chloro-2-hydroxyphenyl)-3-cyano-2-(2-furoylamino)pyridin-4-yl]phenyl}-L-histidinamide dihydrochloride]
210 to 216 | CN(C)c1ccc(-c2cc(-c3ccccc3O)nc(NC(=O)c3cccs3)c2C#N)cc1C(=O)NCCN (as salt: hydrochloride) [Example 248, N-[4-[3-{[(2-aminoethyl)amino]carbonyl}-4-(dimethylamino)phenyl]-3-cyano-6-(2-hydroxyphenyl)pyridin-2-yl]thiophene-2-carboxamide dihydrochloride]
200 to 206 | N#Cc1c(-c2cccc(NC(=O)[C@H](N)Cc3cnc[nH]3)c2)cc(-c2ccc(Cl)cc2O)nc1NC(=O)c1ccco1 (as salt: hydrochloride) [Example 253, N-{3-[6-(4-chloro-2-hydroxyphenyl)-3-cyano-2-(2-furoylamino)pyridin-4-yl]phenyl}-D-histidinamide dihydrochloride]
186 to 194 | CN(C)CC(=O)Nc1cccc(-c2cc(-c3ccc(F)cc3O)nc(NC(=O)c3ccco3)c2CN(C)C)c1 (as salt: hydrochloride) [Example 300, N-[3-[(dimethylamino)methyl]-4-{3-[(N,N-dimethylglycyl)amino]phenyl}-6-(4-fluoro-2-hydroxyphenyl)pyridin-2-yl]-2-furamide dihydrochloride]
231 to 240 | N#Cc1c(-c2cccc(NC(=O)[C@@H](N)CN)c2)cc(-c2ccc(F)cc2O)nc1NC(=O)c1ccco1 (as salt: hydrochloride) [Example 302, N-[4-{3-[(3-amino-L-alanyl)amino]phenyl}-3-cyano-6-(4-fluoro-2-hydroxyphenyl)pyridin-2-yl]-2-furamide dihydrochloride]
138 to 144 | CCN(CC)CCN(CC)c1cccc(-c2cc(-c3ccc(F)cc3O)nc(NC(=O)c3ccco3)c2C#N)c1 (as salt: hydrochloride) [Example 304, N-[3-cyano-4-{3-[[2-(diethylamino)ethyl] (ethyl)amino]phenyl}-6-(4-fluoro-2-hydroxyphenyl)pyridin-2-yl]-2-furamide dihydrochloride]
195 to 200 | CN(C)C[C@@H](C(=O)Nc1cccc(-c2cc(-c3ccc(F)cc3O)nc(NC(=O)c3ccco3)c2C#N)c1)N(C)C (as salt: hydrochloride) [Example 305, N-[3-cyano-4-(3-{[3-(dimethylamino)-N,N-dimethyl-L-alanyl]amino}phenyl)-6-(4-fluoro-2-hydroxyphenyl)pyridin-2-yl]-2-furamide dihydrochloride]
195 to 197 | CCCC(CC(=O)Nc1cccc(-c2cc(-c3ccc(F)cc3O)nc(NC(=O)c3ccco3)c2C#N)c1)N(CC)CC (centres unmarked) (as salt: hydrochloride) [Example 317, N-[3-cyano-4-(3-{[3-(diethylamino)hexanoyl]amino}phenyl)-6-(4-fluoro-2-hydroxyphenyl)pyridin-2-yl]-2-furamide hydrochloride]
205 to 210 | CN1CCN(Cc2cccc(-c3cc(-c4ccc(F)cc4O)nc(NC(=O)c4ccco4)c3C#N)c2)CC1 (as salt: hydrochloride) [Example 333, N-(3-cyano-6-(4-fluoro-2-hydroxyphenyl)-4-{3-[(4-methylpiperazin-1-yl)methyl]phenyl}pyridin-2-yl)-2-furamide dihydrochloride]
215 to 222 | CCN1CCN(Cc2cccc(-c3cc(-c4ccc(F)cc4O)nc(NC(=O)c4ccco4)c3C#N)c2)CC1 (as salt: hydrochloride) [Example 334, N-[3-cyano-4-{3-[(4-ethylpiperazin-1-yl)methyl]phenyl}-6-(4-fluoro-2-hydroxyphenyl)pyridin-2-yl]-2-furamide dihydrochloride]
225 to 226 | N#Cc1c(-c2cccc(NC(=O)CCN)c2)cc(-c2ccccc2O)nc1NC(=O)c1ccccc1 (as salt: trifluoroacetate) [Example 31, N-[4-(3-(β-alanylamino)phenyl)-3-cyano-6-(2-hydroxyphenyl)pyridin-2-yl]benzamide trifluoroacetate]
197 to 204 | N#Cc1c(-c2cccc(NC(=O)CCN)c2)cc(-c2cc(Cl)ccc2O)nc1NC(=O)c1cccs1 (as salt: trifluoroacetate) [Example 46, N-{4-[3-(β-alanylamino)phenyl]-6-(5-chloro-2-hydroxyphenyl)-3-cyanopyridin-2-yl}thiophene-2-carboxamide trifluoroacetate]
205 to 210 | N#Cc1c(-c2cccc(NC(=O)CCN)c2)cc(-c2cc(Cl)ccc2O)nc1NC(=O)c1ccccc1 (as salt: trifluoroacetate) [Example 47, N-{4-[3-(β-alanylamino)phenyl]-6-(5-chloro-2-hydroxyphenyl)-3-cyanopyridin-2-yl}benzamide trifluoroacetate]
164 to 170 | COc1ccc(-c2cc(-c3cccc(NC(=O)CCN)c3)c(C#N)c(NC(=O)c3ccccc3)n2)c(O)c1 (as salt: trifluoroacetate) [Example 50, N-{4-[3-(β-alanylamino)phenyl]-3-cyano-6-(2-hydroxy-4-methoxyphenyl)pyridin-2-yl}benzamide trifluoroacetate]
160 to 167 | N#Cc1c(-c2cccc(NC(=O)CCN)c2)cc(-c2ccc(Cl)cc2O)nc1NC(=O)c1ccccc1 (as salt: trifluoroacetate) [Example 51, N-{4-[3-(β-alanylamino)phenyl]-6-(4-chloro-2-hydroxyphenyl)-3-cyanopyridin-2-yl}benzamide trifluoroacetate]

The remaining lines, values behind:

SMILES | melting point [°C]
CNCC(=O)Nc1cccc(-c2cc(-c3ccccc3O)nc(NC(=O)c3cccs3)c2C#N)c1.Cl | 248 to 254
Cl.N#Cc1c(-c2cccc(NC(=O)[C@@H]3CCCN3)c2)cc(-c2ccccc2O)nc1NC(=O)c1cccs1 | 210 to 218
Cl.N#Cc1c(-c2cccc(NC(=O)[C@H]3CCCN3)c2)cc(-c2ccccc2O)nc1NC(=O)c1cccs1 | 213 to 218
COc1ccccc1C(=O)Nc1nc(-c2ccc(Cl)cc2O)cc(-c2cccc(NC(=O)CCN)c2)c1C#N.Cl | 233 to 238
Cl.NCCC(=O)Nc1cccc(-c2cc(-c3ccccc3O)nc(NC(=O)c3ccccc3)c2C(=O)O)c1 | 250 to 253
Cl.N#Cc1c(-c2cccc(NC(=O)CN3CCCCC3)c2)cc(-c2ccc(F)cc2O)nc1NC(=O)c1ccco1 | 249 to 251
Cl.N#Cc1c(-c2ccc(F)c(N)c2)cc(-c2ccc(F)cc2O)nc1NC(=O)c1ccco1 | 284 to 285
Cl.N#Cc1c(-c2cccc(N3CCOCC3)c2)cc(-c2ccc(F)cc2O)nc1NC(=O)c1ccco1 | 244 to 246
Cl.N#Cc1c(-c2cccc(N3CCCCC3)c2)cc(-c2ccc(F)cc2O)nc1NC(=O)c1ccco1 | 240 to 242
Cl.N#Cc1c(-c2cccc(C(=O)NCCCN)c2)cc(-c2ccccc2O)nc1NC(=O)c1cccs1 | 192 to 198
Cl.N#Cc1c(-c2ccc(C(=O)NCCN)cc2)cc(-c2ccccc2O)nc1NC(=O)c1cccs1 | 202 to 208
Cl.N#Cc1c(-c2cccc(C(=O)N3CCNCC3)c2)cc(-c2ccccc2O)nc1NC(=O)c1cccs1 | 232 to 236
COc1ccc(O)c(-c2cc(-c3cccc(NC(=O)CCN)c3)c(C#N)c(NC(=O)c3cccs3)n2)c1.Cl | 197 to 201
COc1ccccc1C(=O)Nc1nc(-c2ccc(Cl)cc2O)cc(-c2cccc(C(=O)NCCN)c2)c1C#N.Cl | 227 to 229
CCOc1ccccc1C(=O)Nc1nc(-c2ccc(Cl)cc2O)cc(-c2cccc(NC(=O)CCN)c2)c1C#N.Cl | 240 to 244
Cl.N#Cc1c(-c2cccc(NC(=O)CCN)c2)cc(-c2ccc(Cl)cc2O)nc1NC(=O)c1ccccc1OC(F)(F)F | 218 to 223
Cl.N#Cc1c(-c2cccc(C(=O)NC3CCCNC3)c2)cc(-c2ccccc2O)nc1NC(=O)c1cccs1 (centres unmarked) | 232 to 233
